Earlier results, collected in patent US20040126318A1, “Methods, formulations and kits for monitoring and diagnosing gastric emptying and gastroparesis, and formulations for determining gastrointestinal motility” (priority 2002, published 2004).

Row | Structure (SMILES) | cardiac side effects (reason for removal from the market by the FDA) | patients with serious side effects (drowsiness, nightmares, depression, Parkinsonism) (patients treated with this drug)
1 | COc1cc(N)c(Cl)cc1C(=O)NC1CCN(CCCOc2ccc(F)cc2)CC1OC (centres unmarked) [cisapride] | produced severe and sometimes fatal arrhythmias | 
2 | CCN(CC)CCNC(=O)c1cc(Cl)c(N)cc1OC [Metochlopramide] |  | up to 50%
